In US20050142581A1, “Microrna as ligands and target molecules” (priority 2003, published 2005):
Oligonucleotides are written 5' to 3', each unit as a sugar letter and its base; * is a phosphorothioate linkage, no mark a phosphodiester; rarer units and linkages stand in square brackets, end groups in braces. Plain capitals give the bases only. d = 2'-deoxy (DNA)

The substances below were run on human CD40 mRNA (assay: Inhibition of CD40 mRNA levels by oligonucleotides (real-time RT-PCR)). Conditions: oligodeoxynucleotides with phosphorothioate backbones throughout; averages from three experiments.
Assay type: cell-based
Parameters: concentration or dose not given beside the values
Description: When cells reach about 80% confluency, they are treated with oligonucleotide. For cells grown in 96-well plates, wells are washed once with 200 μl Opti-MEM-1 reduced-serum medium (Life Technologies) and then treated with 130 μl of Opti-MEM-1 containing 3.75 μg/ml LIPOFECTIN (Life Technologies) and the desired oligonucleotide at a final concentration of 150 nM. After 4 hours of treatment, the medium was replaced with fresh medium. Cells were harvested 16 hours after oligonucleotide treatment.
Poly(A)+ mRNA was isolated according to Miura et al. (Clin. Chem., 1996, 42, 1758). Briefly, for cells grown on 96-well plates, growth medium was removed from the cells and each well was washed with 200 ul cold PBS. 60 ul lysis buffer (10 mM Tris-HCl, pH 7.6, 1 mM EDTA, 0.5 M NaCl, 0.5% NP-40, 20 mM vanadyl-ribonucleoside complex) was added to each well, the plate was gently agitated and then incubated at room temperature for five minutes. 55 ul of lysate was transferred to Oligo d(T) coated 96 well plates (AGCT Inc., Irvine, Calif.). Plates were incubated for 60 minutes at room temperature, washed 3 times with 200 ul of wash buffer (10 mM Tris-HCl pH 7.6, 1 mM EDTA, 0.3 M NaCl). After the final wash, the plate was blotted on paper towels to remove excess wash buffer and then air-dried for 5 minutes. 60 ul of elution buffer (5 mM Tris-HCl pH 7.6), preheated to 70° C. was added to each well, the plate was incubated on a 90° hot plate for 5 minutes, and the eluate then transferred to a fresh 96 well plate. Cells grown on 100 mm or other standard plates may be treated similarly, using appropriate volumes of all solutions.
Quantitation of CD40 mRNA levels was determined by real-time PCR (RT-PCR) using the ABI PRISM 7700 Sequence Detection System (PE-Applied Biosystems, Foster City, Calif.) according to manufacturer's instructions. This is a closed-tube, non-gel-based, fluorescence detection system which allows high-throughput quantitation of polymerase chain reaction (PCR) products in real-time.
As opposed to standard PCR, in which amplification products are quantitated after the PCR is completed, products in RT-PCR are quantitated as they accumulate. This is accomplished by including in the PCR reaction an oligonucleotide probe that anneals specifically between the forward and reverse PCR primers, and contains two fluorescent dyes. A reporter dye (e.g., JOE or FAM, PE-Applied Biosystems, Foster City, Calif.) is attached to the 5′ end of the probe and a quencher dye (e.g., TAMRA, PE-Applied Biosystems, Foster City, Calif.) is attached to the 3′ end of the probe. When the probe and dyes are intact, reporter dye emission is quenched by the proximity of the 3′ quencher dye. During amplification, annealing of the probe to the target sequence creates a substrate that can be cleaved by the 5′-exonuclease activity of Taq polymerase.
With each cycle, additional reporter dye molecules are cleaved from their respective probes, and the fluorescence intensity is monitored at regular (six-second) intervals by laser optics built into the ABI PRISM 7700 Sequence Detection System. In each assay, a series of parallel reactions containing serial dilutions of mRNA from untreated control samples generates a standard curve that is used to quantitate the percent inhibition after antisense oligonucleotide treatment of test samples.
RT-PCR reagents were obtained from PE-Applied Biosystems, Foster City, Calif. RT-PCR reactions were carried out by adding 25 ul PCR cocktail (1× Taqman buffer A, 5.5 mM MgCl2, 300 uM each of dATP, dCTP and dGTP, 600 uM of dUTP, 100 nM each of forward primer, reverse primer, and probe, 20 U RNAse inhibitor, 1.25 units AmpliTaq Gold, and 12.5 U MuLV reverse transcriptase) to 96 well plates containing 25 ul poly(A) mRNA solution. […]

Substance	% INHIB. (Inhibition of CD40 mRNA Levels by Phosphorothioate Oligodeoxynucleotides)
18661 (DNA dG*dG*dA*dC*dA*dC*dA*dG*dC*dT*dC*dT*dC*dA*dC*dA*dG*dG; antisense) [compound 18661]	0.00%
18662 (DNA dT*dG*dC*dA*dG*dG*dA*dC*dA*dC*dA*dG*dC*dT*dC*dT*dC*dA; antisense) [compound 18662]	0.00%
18663 (DNA dG*dA*dG*dC*dG*dG*dT*dG*dC*dA*dG*dG*dA*dC*dA*dC*dA*dG; antisense) [compound 18663]	0.00%
18664 (DNA dA*dA*dG*dC*dC*dG*dG*dG*dC*dG*dA*dG*dC*dA*dT*dG*dA*dG; antisense) [compound 18664]	0.00%
18665 (DNA dA*dA*dT*dC*dT*dG*dC*dT*dT*dG*dA*dC*dC*dC*dC*dA*dA*dA; antisense) [compound 18665]	5.59%
18666 (DNA dG*dA*dA*dA*dC*dC*dC*dC*dT*dG*dT*dA*dG*dC*dA*dA*dT*dC; antisense) [compound 18666]	0.10%
18667 (DNA dG*dT*dA*dT*dC*dA*dG*dA*dA*dA*dC*dC*dC*dC*dT*dG*dT*dA; antisense) [compound 18667]	0.00%
18668 (DNA dG*dC*dT*dC*dG*dC*dA*dG*dA*dT*dG*dG*dT*dA*dT*dC*dA*dG; antisense) [compound 18668]	0.00%
18669 (DNA dG*dC*dA*dG*dG*dG*dC*dT*dC*dG*dC*dA*dG*dA*dT*dG*dG*dT; antisense) [compound 18669]	34.05%
18670 (DNA dT*dG*dG*dG*dC*dA*dG*dG*dG*dC*dT*dC*dG*dC*dA*dG*dA*dT; antisense) [compound 18670]	0.00%
18671 (DNA dG*dA*dC*dT*dG*dG*dG*dC*dA*dG*dG*dG*dC*dT*dC*dG*dC*dA; antisense) [compound 18671]	2.71%
18672 (DNA dC*dA*dT*dT*dG*dG*dA*dG*dA*dA*dG*dA*dA*dG*dC*dC*dG*dA; antisense) [compound 18672]	0.00%
18673 (DNA dG*dA*dT*dG*dA*dC*dA*dC*dA*dT*dT*dG*dG*dA*dG*dA*dA*dG; antisense) [compound 18673]	0.00%
18674 (DNA dG*dC*dA*dG*dA*dT*dG*dA*dC*dA*dC*dA*dT*dT*dG*dG*dA*dG; antisense) [compound 18674]	0.00%
18675 (DNA dT*dC*dG*dA*dA*dA*dG*dC*dA*dG*dA*dT*dG*dA*dC*dA*dC*dA; antisense) [compound 18675]	0.00%
18676 (DNA dG*dT*dC*dC*dA*dA*dG*dG*dG*dT*dG*dA*dC*dA*dT*dT*dT*dT; antisense) [compound 18676]	8.01%
18677 (DNA dC*dA*dC*dA*dG*dC*dT*dT*dG*dT*dC*dC*dA*dA*dG*dG*dG*dT; antisense) [compound 18677]	0.00%
18678 (DNA dT*dT*dG*dG*dT*dC*dT*dC*dA*dC*dA*dG*dC*dT*dT*dG*dT*dC; antisense) [compound 18678]	0.00%
18679 (DNA dC*dA*dG*dG*dT*dC*dT*dT*dT*dG*dG*dT*dC*dT*dC*dA*dC*dA; antisense) [compound 18679]	6.98%

Substance	% INHIB. (Inhibition of CD40 mRNA Levels by Phosphorothioate Oligodeoxynucleotides)
18680 (DNA dC*dT*dG*dT*dT*dG*dC*dA*dC*dA*dA*dC*dC*dA*dG*dG*dT*dC; antisense) [compound 18680]	18.76%
18681 (DNA dG*dT*dT*dT*dG*dT*dG*dC*dC*dT*dG*dC*dC*dT*dG*dT*dT*dG; antisense) [compound 18681]	2.43%
18682 (DNA dG*dT*dC*dT*dT*dG*dT*dT*dT*dG*dT*dG*dC*dC*dT*dG*dC*dC; antisense) [compound 18682]	0.00%
18683 (DNA dC*dC*dA*dC*dA*dG*dA*dC*dA*dA*dC*dA*dT*dC*dA*dG*dT*dC; antisense) [compound 18683]	0.00%
18684 (DNA dC*dT*dG*dG*dG*dG*dA*dC*dC*dA*dC*dA*dG*dA*dC*dA*dA*dC; antisense) [compound 18684]	0.00%
18685 (DNA dT*dC*dA*dG*dC*dC*dG*dA*dT*dC*dC*dT*dG*dG*dG*dG*dA*dC; antisense) [compound 18685]	0.00%
18686 (DNA dC*dA*dC*dC*dA*dC*dC*dA*dG*dG*dG*dC*dT*dC*dT*dC*dA*dG; antisense) [compound 18686]	23.31%
18687 (DNA dG*dG*dG*dA*dT*dC*dA*dC*dC*dA*dC*dC*dA*dG*dG*dG*dC*dT; antisense) [compound 18687]	0.00%
18688 (DNA dG*dA*dG*dG*dA*dT*dG*dG*dC*dA*dA*dA*dC*dA*dG*dG*dA*dT; antisense) [compound 18688]	0.00%
18689 (DNA dA*dC*dC*dA*dG*dC*dA*dC*dC*dA*dA*dG*dA*dG*dG*dA*dT*dG; antisense) [compound 18689]	0.00%
18690 (DNA dT*dT*dT*dT*dG*dA*dT*dA*dA*dA*dG*dA*dC*dC*dA*dG*dC*dA; antisense) [compound 18690]	0.00%
18691 (DNA dT*dA*dT*dT*dG*dG*dT*dT*dG*dG*dC*dT*dT*dC*dT*dT*dG*dG; antisense) [compound 18691]	0.00%
18692 (DNA dG*dG*dG*dT*dT*dC*dC*dT*dG*dC*dT*dT*dG*dG*dG*dG*dT*dG; antisense) [compound 18692]	0.00%
18693 (DNA dG*dT*dC*dG*dG*dG*dA*dA*dA*dA*dT*dT*dG*dA*dT*dC*dT*dC; antisense) [compound 18693]	0.00%
18694 (DNA dG*dA*dT*dC*dG*dT*dC*dG*dG*dG*dA*dA*dA*dA*dT*dT*dG*dA; antisense) [compound 18694]	0.00%
18695 (DNA dG*dG*dA*dG*dC*dC*dA*dG*dG*dA*dA*dG*dA*dT*dC*dG*dT*dC; antisense) [compound 18695]	0.00%
18696 (DNA dT*dG*dG*dA*dG*dC*dC*dA*dG*dG*dA*dA*dG*dA*dT*dC*dG*dT; antisense) [compound 18696]	0.00%
18697 (DNA dT*dG*dG*dA*dG*dC*dA*dG*dC*dA*dG*dT*dG*dT*dT*dG*dG*dA; antisense) [compound 18697]	0.00%
18698 (DNA dG*dT*dA*dA*dA*dG*dT*dC*dT*dC*dC*dT*dG*dC*dA*dC*dT*dG; antisense) [compound 18698]	0.00%
